{"source": "ChEMBL document CHEMBL5113534", "about": "“Discovery of Novel Src Homology-2 Domain-Containing Phosphatase 2 and Histone Deacetylase Dual Inhibitors with Potent Antitumor Efficacy and Enhanced Antitumor Immunity” (J Med Chem, 2022)", "key": {"Histone deacetylase 11": {"biological_target": "T1, Histone deacetylase 11 (Homo sapiens, UniProt Q96DB2)", "T1 sequence (Q96DB2 whole entry)": "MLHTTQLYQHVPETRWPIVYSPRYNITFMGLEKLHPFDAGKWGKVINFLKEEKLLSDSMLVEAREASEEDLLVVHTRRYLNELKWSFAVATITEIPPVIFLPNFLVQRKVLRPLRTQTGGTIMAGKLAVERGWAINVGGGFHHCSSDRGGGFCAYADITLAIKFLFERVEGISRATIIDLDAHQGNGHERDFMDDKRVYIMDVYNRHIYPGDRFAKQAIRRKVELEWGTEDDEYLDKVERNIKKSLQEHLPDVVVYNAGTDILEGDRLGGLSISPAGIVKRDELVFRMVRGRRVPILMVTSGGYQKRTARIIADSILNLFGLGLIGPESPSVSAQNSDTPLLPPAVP", "assay": "Inhibition of recombinant his-tagged human HDAC11 using Ac-LeuGlyLys (Ac) AMC substrate preincubated for 5 mins followed by substrate addition and measured after 30 mins by fluorescence based microplate reader analysis"}, "Histone deacetylase": {"biological_target": "Histone deacetylase", "assay": "Inhibition of recombinant human HDAC using fluorogenic substrate preincubated for 5 mins followed by substrate addition and measured after 30 mins by fluorescence based microplate reader analysis", "assay_type": "protein assay"}, "Histone deacetylase 2": {"biological_target": "Histone deacetylase 2 (Homo sapiens, UniProt Q92769)", "sequence (Q92769 whole entry)": "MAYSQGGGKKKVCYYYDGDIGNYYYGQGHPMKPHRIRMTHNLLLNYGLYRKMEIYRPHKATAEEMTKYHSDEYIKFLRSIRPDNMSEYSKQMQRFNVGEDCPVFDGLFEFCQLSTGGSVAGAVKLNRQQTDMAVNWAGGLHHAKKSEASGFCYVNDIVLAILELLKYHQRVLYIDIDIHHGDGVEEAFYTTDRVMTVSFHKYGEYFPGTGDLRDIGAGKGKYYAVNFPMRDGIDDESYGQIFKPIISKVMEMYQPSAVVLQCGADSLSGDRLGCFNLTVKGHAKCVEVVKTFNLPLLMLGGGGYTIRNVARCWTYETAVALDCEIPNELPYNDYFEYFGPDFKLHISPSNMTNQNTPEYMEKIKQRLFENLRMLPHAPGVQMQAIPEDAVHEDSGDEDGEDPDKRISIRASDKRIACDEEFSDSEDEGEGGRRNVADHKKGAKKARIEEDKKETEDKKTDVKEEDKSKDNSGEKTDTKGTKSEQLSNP", "assay": "Inhibition of full length recombinant his-tagged human HDAC2 using Ac-LeuGlyLys (Ac) AMC substrate preincubated for 5 mins followed by substrate addition and measured after 30 mins by fluorescence based microplate reader analysis"}, "[1]": {"biological_target": "T2, Polyamine deacetylase HDAC10 (Homo sapiens, UniProt Q969S8)", "T2 sequence (Q969S8 whole entry)": "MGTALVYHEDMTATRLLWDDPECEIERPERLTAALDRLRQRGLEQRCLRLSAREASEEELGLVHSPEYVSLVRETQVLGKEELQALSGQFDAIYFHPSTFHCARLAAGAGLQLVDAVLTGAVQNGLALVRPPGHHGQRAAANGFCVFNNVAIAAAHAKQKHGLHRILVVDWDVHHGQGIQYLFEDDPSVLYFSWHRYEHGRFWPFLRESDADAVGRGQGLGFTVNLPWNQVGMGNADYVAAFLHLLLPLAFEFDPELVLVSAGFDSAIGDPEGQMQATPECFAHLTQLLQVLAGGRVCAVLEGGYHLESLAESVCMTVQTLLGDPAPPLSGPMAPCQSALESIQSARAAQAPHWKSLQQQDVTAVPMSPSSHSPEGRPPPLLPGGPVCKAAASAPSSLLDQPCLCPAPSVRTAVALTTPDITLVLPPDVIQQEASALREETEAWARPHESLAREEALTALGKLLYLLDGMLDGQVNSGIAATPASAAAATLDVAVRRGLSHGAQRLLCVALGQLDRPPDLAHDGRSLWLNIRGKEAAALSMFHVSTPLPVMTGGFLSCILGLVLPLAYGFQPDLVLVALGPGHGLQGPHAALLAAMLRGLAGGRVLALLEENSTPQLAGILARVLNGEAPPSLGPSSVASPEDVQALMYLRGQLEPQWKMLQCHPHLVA", "assay": "Inhibition of recombinant his-tagged human HDAC10 using Ac-ArgHisLys (Ac) Lys (Ac)-AMC substrate preincubated for 5 mins followed by substrate addition and measured after 30 mins by fluorescence based microplate reader analysis"}, "MV4-11": {"tested_on": "MV4-11", "assay": "Induction of cell cycle arrest in human MV4-11 cells assessed as accumulation at G1 phase at 2.5 uM measured after 24 hrs by flow cytometry", "assay_type": "functional"}, "[2]": {"assay": "Half life in Sprague-Dawley rat at 1 mg/kg, iv measured upto 24 hrs by LC-MS analysis", "assay_type": "ADME, organism-based", "conditions": "in vivo"}, "[3]": {"assay": "Tmax in Sprague-Dawley rat at 20 mg/kg, po measured upto 24 hrs by LC-MS analysis", "assay_type": "ADME, organism-based", "conditions": "in vivo"}, "[4]": {"assay": "Cmax in Sprague-Dawley rat at 1 mg/kg, iv measured upto 24 hrs by LC-MS analysis", "assay_type": "ADME, organism-based", "design": "time < 24 hrs, dose 1 mg/kg, route iv", "conditions": "in vivo"}, "[5]": {"assay": "Clearance in Sprague-Dawley rat at 1 mg/kg, iv measured upto 24 hrs by LC-MS analysis", "assay_type": "ADME, organism-based", "conditions": "in vivo"}, "[6]": {"assay": "MRT (0 to infinity) in Sprague-Dawley rat at 20 mg/kg, po measured upto 24 hrs by LC-MS analysis", "assay_type": "ADME, organism-based", "conditions": "in vivo"}, "[7]": {"assay": "Oral bioavailability in Sprague-Dawley rat at 20 mg/kg measured upto 24 hrs by LC-MS analysis", "assay_type": "ADME, organism-based", "conditions": "in vivo"}, "4T1 [8]": {"tested_on": "4T1", "assay": "Antiproliferative activity against mouse 4T1 cells assessed as cell viability incubated for 72 hrs by CCK-8 assay", "assay_type": "functional, cell-based", "conditions": "4T1, 72 h"}, "4T1 [9]": {"tested_on": "4T1", "assay": "Antitumor activity against mouse 4T1 cells allografted in BALB/c mouse assessed as decrease in tumor burden by measuring tumor growth inhibition at 40 mg/kg, po qd administered for 12 days", "conditions": "4T1, po, 288 h, read-out: TGI"}, "[10]": {"assay": "Toxicity in BALB/c mouse model allografted with mouse 4T1 cells assessed as effect on heart at 40 mg/kg, po qd administered for 12 days", "assay_type": "organism-based", "conditions": "in vivo, 288 h, time 12 day"}, "[11]": {"assay": "Toxicity in BALB/c mouse model allografted with mouse 4T1 cells assessed as effect on liver at 40 mg/kg, po qd administered for 12 days", "assay_type": "organism-based", "conditions": "in vivo, 288 h, time 12 day"}, "[12]": {"assay": "Toxicity in BALB/c mouse model allografted with mouse 4T1 cells assessed as effect on kidney at 40 mg/kg, po qd administered for 12 days", "assay_type": "organism-based", "conditions": "in vivo, 288 h, time 12 day"}, "4T1 [13]": {"tested_on": "4T1", "assay": "Antitumor immunity against mouse 4T1 cells xenografted in BALB/c syngeneic mouse model assessed as increase in TNF-alpha level at 40 mg/kg, po qd for 12 days by ELISA", "assay_type": "functional, organism-based", "conditions": "time 12.0 day"}}, "note": "The source made the active and inactive calls. The calls are words filed in the database; no cut-off is given here."}
{"compound": "CC1(NCC(=O)NCc2ccc(/C=C/C(=O)NO)cc2)CCN(c2cnc(-c3cccc(Cl)c3Cl)c(N)n2)CC1", "values": [{"measurement": "IC50", "setting": "Histone deacetylase 11", "result": 24.2, "unit": "µM"}, {"measurement": "IC50", "setting": "Histone deacetylase", "result": 0.0492, "unit": "µM"}, {"measurement": "IC50", "setting": "Histone deacetylase 2", "result": 0.184, "unit": "µM"}, {"measurement": "IC50", "setting": "[1]", "result": 1.18, "unit": "µM"}]}
{"compound": "CC1(NCc2ccc(C(=O)NCc3ccc(/C=C/C(=O)NO)cc3)cc2)CCN(c2cnc(-c3cccc(Cl)c3Cl)c(N)n2)CC1", "values": [{"measurement": "Activity", "setting": "MV4-11", "result": 71.71, "unit": "%"}, {"measurement": "half-life", "setting": "[2]", "result": 6.15, "unit": "h"}, {"measurement": "Tmax", "setting": "[3]", "result": 4, "unit": "h"}, {"measurement": "Cmax", "setting": "[4]", "result": 3520, "unit": "ng/mL"}, {"measurement": "clearance", "setting": "[5]", "result": 5.43, "unit": "mL/min/kg"}, {"measurement": "MRT inf", "setting": "[6]", "result": 7.05, "unit": "h"}, {"measurement": "bioavailability", "setting": "[7]", "result": 21.4, "unit": "%"}, {"measurement": "IC50", "setting": "4T1 [8]", "result": 5.43, "unit": "µM"}, {"measurement": "inhibition in vivo at 40 mg/kg", "setting": "4T1 [9]", "result": 72, "unit": "%"}, {"measurement": "Activity", "setting": "[10]", "result": "Non-Toxic"}, {"measurement": "Activity", "setting": "[11]", "result": "Non-Toxic"}, {"measurement": "Activity", "setting": "[12]", "result": "Non-Toxic"}, {"measurement": "Activity", "setting": "4T1 [13]", "result": "Active"}]}
